Tests used:
virus VIH-1 = experiment: Infectivity of pretreated HIV-1 virus for the Supt-1 line (p24 antigen in cell lysates, optical density; phase-contrast microscopy); type: cell-based; details: for multiplication du virus VIH-1 dans les cellules Supt-1: after 1, 10 and 30 minutes incubation with the agent at ordinary temperature; for Mesure d'infectivité du virus VIH-1 (D.O.492): p24 in Supt-1 lysates
Excerpt: Ces essais comprennent comme matériel de départ : • de la N, N'-dichloroazodicarbonamidine (chloroazodine) à 95 % pure. La pureté a été examinée par chromatographie en couche mince et par un test de carbone-hydrogène (v. BRAZ G.I. et cons., J. Applied Chem. (USSR) 17,565-9 (1944)). • un surnageant de cultures de cellules (Molt-3) continuellement productrices de virus VIH-1. Le surnageant viral utilisé a une activité de transcriptase inverse de 1 x 10^6 cpm/ml. • des cellules d'une lignée T humaine continue de phénotype T4 (Supt-1) cultivée en milieu RPMI, additionné de 10 % de sérum de veau foetal et de 1 % de glutamine.
L' efficacité de la chloroazodine va être étudiée à deux niveaux : • a) action sur l'infectivité du virus VIH-1 pour la lignée Supt-1. • b) action sur l'intégration du génome viral dans l'ADN chromosomial des cellules Supt-1.
On fait incuber des préparations virales de VIH-1 à haut titre en présence de dilutions de chloroazodine de 1/1500 et de 1/3000 et pendant différents temps d'incubation. Pendant 30 minutes à 37°C, on traite préalablement les cellules Supt-1 par 10 µg/ml de polybrène, puis on les inocule avec les préparations de virus traités. On prévoit comme témoins, des cellules non inoculées, et des cellules inoculées par une préparation de virus non traités.
On détermine ensuite l'infectivité, à chaque passage cellulaire, de ces préparations en suivant la production virale (mesure de l'antigène p24 exprimé) dans les lysats cellulaires solubilisés des cellules Supt-1 examinées.
Les mesures du pouvoir infectieux du virus VIH-1 après incubation avec de la chloroazodine ressortent des tableaux 1 à 3 suivants, ainsi que des figures 1 à 3 qui correspondent aux tableaux 1 à 3. Sur ces figures, on trouve en ordonnée la densité optique (D.O.) et en abscisse le nombre de jours après l'infection. Le trait plein représente le témoin non traite, le trait interrompu la dilution de 1/1500 de chloroazodine, et le trait pointillé la dilution de 1/3000 de chloroazodine.

lymphocytes normaux = type: cell-based, humains
Excerpt: Des lymphocytes humains provenant du sang périphérique de donneurs séro-négatifs (PBL) sont infectés par du VIH-1 provenant du surnageant de cellules Molt-3, c'est-à-dire de cellules continuellement productrices de ces virus.
Quatre populations cellulaires sont étudiées quant à leur mortalité : • 1 des lymphocytes normaux en culture (Témoin A). • 2 des lymphocytes normaux en présence de chloroazodine 1/3000. • 3 des lymphocytes infectés non traités (Témoin B). • 4 des lymphocytes infectés, en présence de chloroazodine 1/3000. Tableau 4

## NC(N=NC(N)=NCl)=NCl [chloroazodine, N, N'-dichloroazodicarbonamidine]
Virus VIH-1; dilution 1/1500
  multiplication du virus VIH-1 dans les cellules Supt-1: empêche totalement le virus VIH-1 de se multiplier
Virus VIH-1; dilution 1/3000
  multiplication du virus VIH-1 dans les cellules Supt-1: empêche totalement le virus VIH-1 de se multiplier
Virus VIH-1; low concentration, in organic medium, conclusion from examples 3 to 5
  temps pour l'éradication totale des virus: ≤ 1 min
Virus VIH-1; phase-contrast microscopy, Supt-1 cells inoculated with virus pretreated with chloroazodine (control virus: syncytia from day 14)
  effet cytopathogène: aucun effet cytopathogène
Virus VIH-1; virus incubated 1 minute with chloroazodine 1/1500, 10 days after infection
  Mesure d'infectivité du virus VIH-1 (D.O.492): 0,174 ± 0,002
Virus VIH-1; virus incubated 1 minute with chloroazodine 1/1500, 14 days after infection
  Mesure d'infectivité du virus VIH-1 (D.O.492): 0,175 ± 0,016
Virus VIH-1; virus incubated 1 minute with chloroazodine 1/1500, 17 days after infection
  Mesure d'infectivité du virus VIH-1 (D.O.492): 0,152 ± 0,016
Virus VIH-1; virus incubated 1 minute with chloroazodine 1/1500, 21 days after infection
  Mesure d'infectivité du virus VIH-1 (D.O.492): 0,183 ± 0,026
Virus VIH-1; virus incubated 1 minute with chloroazodine 1/1500, 24 days after infection
  Mesure d'infectivité du virus VIH-1 (D.O.492): 0,180 ± 0,008
Virus VIH-1; virus incubated 1 minute with chloroazodine 1/3000, 10 days after infection
  Mesure d'infectivité du virus VIH-1 (D.O.492): 0,173 ± 0,009
Virus VIH-1; virus incubated 1 minute with chloroazodine 1/3000, 14 days after infection
  Mesure d'infectivité du virus VIH-1 (D.O.492): 0,149 ± 0,002
Virus VIH-1; virus incubated 1 minute with chloroazodine 1/3000, 17 days after infection
  Mesure d'infectivité du virus VIH-1 (D.O.492): 0,172 ± 0,016
Virus VIH-1; virus incubated 1 minute with chloroazodine 1/3000, 21 days after infection
  Mesure d'infectivité du virus VIH-1 (D.O.492): 0,202 ± 0,003
Virus VIH-1; virus incubated 1 minute with chloroazodine 1/3000, 24 days after infection
  Mesure d'infectivité du virus VIH-1 (D.O.492): 0,166 ± 0,004
Virus VIH-1; virus incubated 10 minutes with chloroazodine 1/1500, 10 days after infection
  Mesure d'infectivité du virus VIH-1 (D.O.492): 0,146 ± 0,004
Virus VIH-1; virus incubated 10 minutes with chloroazodine 1/1500, 14 days after infection
  Mesure d'infectivité du virus VIH-1 (D.O.492): 0,151 ± 0,006
Virus VIH-1; virus incubated 10 minutes with chloroazodine 1/1500, 17 days after infection
  Mesure d'infectivité du virus VIH-1 (D.O.492): 0,165 ± 0,013
Virus VIH-1; virus incubated 10 minutes with chloroazodine 1/1500, 21 days after infection
  Mesure d'infectivité du virus VIH-1 (D.O.492): 0,188 ± 0,016
Virus VIH-1; virus incubated 10 minutes with chloroazodine 1/1500, 24 days after infection
  Mesure d'infectivité du virus VIH-1 (D.O.492): 0,180 ± 0,008
Virus VIH-1; virus incubated 10 minutes with chloroazodine 1/3000, 10 days after infection
  Mesure d'infectivité du virus VIH-1 (D.O.492): 0,202 ± 0,021
Virus VIH-1; virus incubated 10 minutes with chloroazodine 1/3000, 14 days after infection
  Mesure d'infectivité du virus VIH-1 (D.O.492): 0,146 ± 0,010
Virus VIH-1; virus incubated 10 minutes with chloroazodine 1/3000, 17 days after infection
  Mesure d'infectivité du virus VIH-1 (D.O.492): 0,157 ± 0,005
Virus VIH-1; virus incubated 10 minutes with chloroazodine 1/3000, 21 days after infection
  Mesure d'infectivité du virus VIH-1 (D.O.492): 0,182 ± 0,018
Virus VIH-1; virus incubated 10 minutes with chloroazodine 1/3000, 24 days after infection
  Mesure d'infectivité du virus VIH-1 (D.O.492): 0,166 ± 0,004
Virus VIH-1; virus incubated 30 minutes with chloroazodine 1/1500, 10 days after infection
  Mesure d'infectivité du virus VIH-1 (D.O.492): 0,185 ± 0,008
Virus VIH-1; virus incubated 30 minutes with chloroazodine 1/1500, 14 days after infection
  Mesure d'infectivité du virus VIH-1 (D.O.492): 0,142 ± 0,010
Virus VIH-1; virus incubated 30 minutes with chloroazodine 1/1500, 17 days after infection
  Mesure d'infectivité du virus VIH-1 (D.O.492): 0,176 ± 0,004
Virus VIH-1; virus incubated 30 minutes with chloroazodine 1/1500, 21 days after infection
  Mesure d'infectivité du virus VIH-1 (D.O.492): 0,194 ± 0,007
Virus VIH-1; virus incubated 30 minutes with chloroazodine 1/1500, 24 days after infection
  Mesure d'infectivité du virus VIH-1 (D.O.492): 0,163 ± 0,003
Virus VIH-1; virus incubated 30 minutes with chloroazodine 1/3000, 10 days after infection
  Mesure d'infectivité du virus VIH-1 (D.O.492): 0,205 ± 0,013
Virus VIH-1; virus incubated 30 minutes with chloroazodine 1/3000, 14 days after infection
  Mesure d'infectivité du virus VIH-1 (D.O.492): 0,176 ± 0,005
Virus VIH-1; virus incubated 30 minutes with chloroazodine 1/3000, 17 days after infection
  Mesure d'infectivité du virus VIH-1 (D.O.492): 0,174 ± 0,015
Virus VIH-1; virus incubated 30 minutes with chloroazodine 1/3000, 21 days after infection
  Mesure d'infectivité du virus VIH-1 (D.O.492): 0,169 ± 0,000
Virus VIH-1; virus incubated 30 minutes with chloroazodine 1/3000, 24 days after infection
  Mesure d'infectivité du virus VIH-1 (D.O.492): 0,172 ± 0,031
Lymphocytes normaux
  différences entre les témoins A et B et les lymphocytes sains + chloroazodine: non significatives

Reference: EP0504184B1, “ACTIVE AGENT AGAINST RETROVIRUS GROUP VIRUSES, COMPOSITIONS CONTAINING SAME AND THEIR USE” (PREVISAN S.A., priority 1989, dated 1991)
